Test results reported in patent US20230146507A1, “N-PHENYL-3-MERCAPTOPROPANAMIDE DERIVATIVES AS METALLO-BETA-LACTAMASE INHIBITORS FOR THE TREATMENT OF BACTERIAL INFECTIONS” (Helmholtz-Zentrum Für Infektionsforschung GmbH, priority 2020, published 2023).
Values after ≈ are worked out from the molar mass of the structure shown.

Key:
E. coli NDM-7 (T2239) = assay: MIC assay, clinical isolate; format: cell-based; settings: E. coli NDM-7 (T2239)
[1] = tested on: different isolates from E. coli and P. aeruginosa; assay: MIC assay, intrinsic antibacterial activity; format: cell-based; settings: compound alone
[2] = tested on: S. marcescens NDM-1 (T2352); assay: MIC assay, clinical isolate; format: cell-based; settings: S. marcescens NDM-1 (T2352)
[3] = tested on: P. aeruginosa VIM-1 (T2357); assay: MIC assay, clinical isolate; format: cell-based; settings: intrinsic antimicrobial activity
E. coli IMP-1 (T2360) = assay: Checkerboard assay with imipenem, E. coli IMP-1 (T2360); format: cell-based
Description: (§1) Fractional inhibitory concentration index (FICI). The checkerboard assay was performed to test for synergy in vitro. […] FICIs≤0.5 were defined as synergistic; FICIs from >0.5 to […] were defined as additive; FICIs from 1 to ≤4 were defined as indifferent and FICIs>4 were defined as antagonistic (Doern, C. D. When Does 2 plus 2 Equal 5? A Review of Antimicrobial Synergy Testing. J. Clin. Microbial. 2014, 52 (12), 4124-4128. https://doi.org/10.1128/JCM.01121-14).

NDM-1 = biological target: T1, NDM-1 (Klebsiella pneumoniae, UniProt C7C422); assay: In vitro inhibition assay (kinetic fluorescence-based activity assay), NDM-1; format: biochemical; settings: Means and SD of at least two independent experiments
T1 construct: made in house
Description: (§2) Protein expression and purification. The expression of IMP-7, VIM-1, and NDM-1 was performed according to the protocol previously published by Klingler et al. (Klingler, F. M.; Wichelhaus, T. A.; Frank, D.; Cuesta-Bernal, J.; El-Delik, J.; Müller, H. F.; Sjuts, H.; Gottig, S.; Koenigs, A.; Pos, K. M.; et al. Approved Drugs Containing Thiols as Inhibitors of Metallo-β-Lactamases: Strategy to Combat Multidrug-Resistant Bacteria. J. Med. Chem. 2015, 58 (8), 3626-3630. https://doi.org/10.1021/jm501844d) with slight modifications.
(§3) In vitro inhibition assay. Activity assays for NDM-1, VIM-1, VIM-2 and IMP-7 were carried out, as described by Klingler et al. Final protein concentrations were 0.5 nM (NDM-1), 4.0 nM (VIM-1), and 0.1 nM (IMP-7) in a 50 mM HEPES buffer (pH 7.5, 0.01% Triton X-100) Substrate (Fluorocillin™ (Invitrogen, Darmstadt, Germany) was dissolved in assay buffer to a final concentration of 888 nM. Test compounds were dissolved and pre-diluted in DMSO (final concentration: 1%). In a black polystyrol 96-well plate (Corning) an amount of […] of the respective inhibitor solution at different concentrations was incubated with […] of respective protein containing buffer for 30 minutes at room temperature. […] of substrate solution was added. The readout of the emitted fluorescence was started immediately (45 s for 30 cycles) using a Tecan Infinite F200Pro (Tecan Group Ltd; excitation at 495 nm and emission at 525 nm). Blank controls were performed without enzyme. Positive controls were performed with enzyme but without inhibitor. The inhibitory activity of each test compound was measured in three independent experiments. For calculation of IC50 values, data obtained from measurements with eight different inhibitor concentrations were used. For the evaluation of the sigmoidal dose response equation (variable slope with four parameters) GraphPad Prism 5 (GraphPad Software, La Jolla, Calif., USA) was used.

E. coli NDM-1 (T2359) = assay: Checkerboard assay with imipenem, E. coli NDM-1 (T2359); format: cell-based; settings: Table 6
Description: as §1

[4] = tested on: K. pneumoniae NDM-1 (T2301); assay: MIC assay, clinical isolate; format: cell-based
E. cloacae NDM-1 (T2311) = assay: MIC assay, clinical isolate; format: cell-based
VIM-1 = biological target: T2, VIM-1 (Pseudomonas aeruginosa, UniProt A0A0F7KYQ8); assay: In vitro inhibition assay (kinetic fluorescence-based activity assay), VIM-1; format: biochemical; settings: Means and SD of at least two independent experiments
T2 construct: made in house
Description: as §2, §3

E. cloacae GIM-1 (T2218) = assay: MIC assay, clinical isolate; format: cell-based; settings: intrinsic antimicrobial activity; E. cloacae GIM-1 (T2218)
[5] = tested on: P. aeruginosa IMP-1 (T2325); assay: MIC assay, clinical isolate; format: cell-based; settings: intrinsic antimicrobial activity; P. aeruginosa IMP-1 (T2325)
[6] = tested on: A. baumannii OXA-23 (T2434); assay: MIC assay, clinical isolate; format: cell-based; settings: intrinsic antimicrobial activity
E. cloacae VIM-1 (T2353) = assay: MIC assay, clinical isolate; format: cell-based
E. coli VIM-1 (T2544) = assay: Checkerboard assay with imipenem, E. coli VIM-1 (T2544); format: cell-based
Description: as §1

IMP-7 = IMP-7 (Pseudomonas aeruginosa, UniProt Q93AU3); assay: In vitro inhibition assay (kinetic fluorescence-based activity assay), IMP-7; format: biochemical; settings: Means and SD of at least two independent experiments
Description: as §2, §3

E. coli KPC-2 (T2435) = assay: MIC assay, clinical isolate; format: cell-based; settings: intrinsic antimicrobial activity
E. coli NDM-5 (T2351) = assay: MIC assay, clinical isolate; format: cell-based
[7] = intrinsic antimicrobial activity

T1 sequence (C7C422 29-270, looked up, species assumed): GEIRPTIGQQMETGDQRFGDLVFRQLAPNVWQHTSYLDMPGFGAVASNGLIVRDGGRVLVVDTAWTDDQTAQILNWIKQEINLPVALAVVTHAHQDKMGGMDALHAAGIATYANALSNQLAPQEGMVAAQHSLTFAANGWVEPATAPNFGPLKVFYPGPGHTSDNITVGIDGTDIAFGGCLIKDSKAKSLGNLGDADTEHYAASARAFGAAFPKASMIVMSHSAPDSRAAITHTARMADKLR
IMP-7, sequence (Q93AU3 entry or part of it): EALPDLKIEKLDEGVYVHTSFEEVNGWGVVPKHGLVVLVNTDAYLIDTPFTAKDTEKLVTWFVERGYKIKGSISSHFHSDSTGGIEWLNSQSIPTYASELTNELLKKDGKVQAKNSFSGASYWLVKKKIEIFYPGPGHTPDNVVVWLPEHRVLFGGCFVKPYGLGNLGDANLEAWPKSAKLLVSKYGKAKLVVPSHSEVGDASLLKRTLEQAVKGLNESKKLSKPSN

For `O=C(CCS)Nc1cccc(C(=O)O)c1` [HIPS5694, 3-(3-mercaptopropanamido)benzoic acid], the “MIC (mg/L) Imipenem (+HIPS 5694 128 mg/L)” value (“MIC (mg/L) Imipenem” for short) (E. coli NDM-7 (T2239); +HIPS 5694 128 mg/L) was 2 mg/L (≈ 8.88 µM), the “HIPS 5694 MIG” value (E. coli NDM-7 (T2239); [7]) was greater than 256 mg/L and the “intrinsic antibacterial activity (MIC)” value [1] was “no intrinsic antibacterial activity”. The “MIC (mg/L) Imipenem” value ([2]; +HIPS 5694 128 mg/L) was 4 mg/L (≈ 17.8 µM), the “HIPS 5694 MIG” value [2, 7] was greater than 256 mg/L and the “HIPS 5694 MIG” value [3] was greater than 256 mg/L. The “Imipenem MIC” value (E. coli IMP-1 (T2360); +2 mg/L compound) was 2 µg/mL, the “Imipenem MIC” value (E. coli IMP-1 (T2360); +4 mg/L compound) was 2 µg/mL and the “Imipenem MIC” value (E. coli IMP-1 (T2360); +8 mg/L compound) was 1 µg/mL. For the same molecule, the “Imipenem MIC” value (E. coli IMP-1 (T2360); +16 mg/L compound) was 1 µg/mL, the “Imipenem MIC” value (E. coli IMP-1 (T2360); +32 mg/L compound) was 1 µg/mL and the “Imipenem MIC” value (E. coli IMP-1 (T2360); +64 mg/L compound) was 0.5 µg/mL. For the same molecule, the “Imipenem MIC” value (E. coli IMP-1 (T2360); +128 mg/L compound) was 0.5 µg/mL, the IC50 (NDM-1) was 4 µM and the “Imipenem MIC” value (E. coli NDM-1 (T2359); +2 mg/L compound) was 128 µg/mL. For the same molecule, the “Imipenem MIC” value (E. coli NDM-1 (T2359); +4 mg/L compound) was 128 µg/mL, the “Imipenem MIC” value (E. coli NDM-1 (T2359); +8 mg/L compound) was 64 µg/mL and the “Imipenem MIC” value (E. coli NDM-1 (T2359); +16 mg/L compound) was 64 µg/mL. The “Imipenem MIC” value (E. coli NDM-1 (T2359); +32 mg/L compound) was 8 µg/mL, the “Imipenem MIC” value (E. coli NDM-1 (T2359); +64 mg/L compound) was 2 µg/mL and the “Imipenem MIC” value (E. coli NDM-1 (T2359); +128 mg/L compound) was no more than 0.5 µg/mL. For the same molecule, the “MIC (mg/L) Imipenem” value ([4]; +HIPS 5694 128 mg/L) was 0.5 mg/L (≈ 2.22 µM), the “HIPS 5694 MIG” value [4, 7] was greater than 256 mg/L and the “MIC (mg/L) Imipenem” value (E. cloacae NDM-1 (T2311); +HIPS 5694 128 mg/L) was 1 mg/L (≈ 4.44 µM). For the same molecule, the “HIPS 5694 MIG” value (E. cloacae NDM-1 (T2311); [7]) was greater than 256 mg/L, the IC50 (VIM-1) was 1.2 µM and the “HIPS 5694 MIG” value (E. cloacae GIM-1 (T2218)) was greater than 256 mg/L. The “HIPS 5694 MIG” value [5] was greater than 256 mg/L, the “HIPS 5694 MIG” value [6] was greater than 256 mg/L and the “MIC (mg/L) Imipenem” value (E. cloacae VIM-1 (T2353); +HIPS 5694 128 mg/L) was 2 mg/L (≈ 8.88 µM). For the same molecule, the “HIPS 5694 MIG” value (E. cloacae VIM-1 (T2353); [7]) was greater than 256 mg/L, the “Imipenem MIC” value (E. coli VIM-1 (T2544); +2 mg/L compound) was 32 µg/mL and the “Imipenem MIC” value (E. coli VIM-1 (T2544); +4 mg/L compound) was 32 µg/mL. For the same molecule, the “Imipenem MIC” value (E. coli VIM-1 (T2544); +8 mg/L compound) was 32 µg/mL, the “Imipenem MIC” value (E. coli VIM-1 (T2544); +16 mg/L compound) was 16 µg/mL and the “Imipenem MIC” value (E. coli VIM-1 (T2544); +32 mg/L compound) was 16 µg/mL. For the same molecule, the “Imipenem MIC” value (E. coli VIM-1 (T2544); +64 mg/L compound) was 8 µg/mL, the “Imipenem MIC” value (E. coli VIM-1 (T2544); +128 mg/L compound) was 0.5 µg/mL and the IC50 (IMP-7) was 6.4 ± 0.6 µM. For the same molecule, the “HIPS 5694 MIG” value (E. coli KPC-2 (T2435)) was greater than 256 mg/L, the “MIC (mg/L) Imipenem” value (E. coli NDM-5 (T2351); +HIPS 5694 128 mg/L) was 2 mg/L (≈ 8.88 µM) and the “HIPS 5694 MIG” value (E. coli NDM-5 (T2351); [7]) was greater than 256 mg/L.
